Data as given in patent publication US20070099877A1, “N-aryl-thienopyrimidin-4-amines and analogs as activators of caspases and inducers of apoptosis and the use thereof” (Cytovia, Inc., priority 2005, published 2007).

System: human colon cancer cell line HT29
Assay: Inhibition of cell proliferation (GI50) in HT29 cells
Type: cell-based
Conditions: HT-29, Table III, 48 h
Experimental: Human breast cancer cell lines T-47D, MX-1 and MDAMB435, human colon cancer cell line HT29, and human lung cancer cell line H1299 were grown and harvested as in Example 75. An aliquot of […] of cells (4.4×10^4 cells/mL) was added to a well of a 96-well microtiter plate containing 5 μL of a 10% DMSO in RPMI-1640 media solution containing 10 nM to 100 μM of N-(2,5-dimethoxyphenyl)-2-methylthieno[3,2-d]pyrimidin-4-amine (1 nM to 10 μM final). An aliquot of 45 μL of cells was added to a well of a 96-well microtiter plate containing 5 μL of a 10% DMSO in RPMI-1640 media solution without compound as the control sample for maximal cell proliferation (Lmax). The samples were mixed by agitation and then incubated at 37° C. for 48 h in a 5% CO2-95% humidity incubator. After incubation, the samples were removed from the incubator and 25 μL of CellTiter-Glo™ reagent (Promega) was added. The samples were mixed by agitation and incubated at room temperature for 10-15 min. Plates were then read using a luminescent plate reader (Model SPECTRAfluor Plus, Tecan) to give Ltest values.
Baseline for GI50 (dose for 50% inhibition of cell proliferation) of initial cell numbers was determined by adding an aliquot of 45 μL of cells or 45 μL of media, respectively, to wells of a 96-well microtiter plate containing 5 μL of a 10% DMSO in RPMI-1640 media solution. The samples were mixed by agitation and then incubated at 37° C. for 0.5 h in a 5% CO2-95% humidity incubator. After incubation, the samples were removed from the incubator and 25 μL of CellTiter-Glo™ reagent (Promega) was added. The samples were mixed by agitation and incubated at 37° C. for 10-15 min at room temperature in a 5% CO2-95% humidity incubator. Fluorescence was read as above, (LStart) defining luminescence for initial cell number used as baseline in GI50 determinations.
GI50 (dose for 50% inhibition of cell proliferation) is the concentration where [(LTest−Lstart)/(LMax−Lstart)]=0.5.

Question: With `COc1ccc(OC)c(Nc2ncnc3ccsc23)c1` [Example 2, N-(2,5-Dimethoxyphenyl)thieno[3,2-d]pyrimidin-4-amine] as the compound, how does the GI50 read?
Answer: 3.63 µM
